Data published in patent US4100346A, “Certain 7(o-amino-methyl- or methylaminomethylphenyl- or cyclohexadienyl- or thienylacetamide)-3[1-carboxymethyl-(or ethyl- or propyl-)-tetrazol-5-ylthiomethyl]-3-cephem-4-carboxylic acids” (Bristol-Myers Company, priority 1976, dated 1978).
≈ marks a conversion by molar mass, not a printed value. Read-outs that look alike come from different tables or passages of the source.

Legend:
[1] = tested on: Providencia stuartii; assay: Growth inhibitory activity, antibiotic dilution technique; conditions: Providencia stuartii strains; at a concentration of 16 mcg./ml.
[2] = tested on: Haemophilus influenzae; assay: as above; conditions: including 9 ampicillin-resistant strains
[3] = tested on: Pseudomonas aeruginosa; assay: as above; conditions: read-out: Minimum inhibitory concentration
[4] = in vitro; format: in vitro ADME, human; conditions: In 95% human serum; read-out: protein bound (converted)
[5] = tested on: Streptococcus pneumoniae; assay: Intramuscular treatment of systemically infected mice; format: in vivo; conditions: im, 3.5 h, read-out: PD50 /treatment
Source text: (§1) Treatment of Systemically Infected Mice. The procedures were identical with those published previously [Leitner et al., BL-S640, a Cephalosporin With a Broad Spectrum of Antibacterial Activity: Bioavailability and Therapeutic Properties in Rodents, Antimicrob. Agents Chemother. 7:306-310, (1975)], except that:
(§2) (a) the hog gastric mucin used in infections with Staphylococcus aureus No. 2 was purchased from American Laboratories, Inc., Omaha, Neb. (lot No. 154163) and b) that the medium used to suspend all other organisms contained 3% (rather than 4%) hog gastric mucin (type 1701W, Wilson Laboratories, Inc., Park Forest South, Ill.).
(§3) *Animals infected with penicillinase-producing staphyloccal strains (No.
(§4) and 3) were treated 0 and 2 hours after infection; the others were treate
(§5) 1 and 3.5 hours after infection.

[6] = tested on: Staphylococcus aureus; assay: as above; format: in vivo; conditions: im, read-out: PD50 /treatment
Source text: as §1, §2, §3, §4, §5

[7] = tested on: Streptococcus pyogenes; assay: as above; format: in vivo; conditions: im, 3.5 h, read-out: PD50 /treatment
Source text: as §1, §2, §3, §4, §5

[8] = tested on: Edwardsiella tarda; assay: Growth inhibitory activity, antibiotic dilution technique; conditions: read-out: Minimum inhibitory concentration
[9] = tested on: Citrobacter sp.; assay: Intramuscular treatment of systemically infected mice; format: in vivo; conditions: im, Citrobacter sp. strain 1, challenge 5×10^6 -2×10^7, treated 1 and 3.5 hours after infection, read-out: PD50 /treatment
Source text: as §1, §2
(§6) *Animals were treated twice; 1 and 3.5 hours after infection.

[10] = tested on: Proteus vulgaris; assay: as above; format: in vivo; conditions: im, 3.5 h, read-out: PD50 /treatment
Source text: as §1, §2, §6

[11] = tested on: Proteus morganii; assay: as above; format: in vivo; conditions: Morganella morganii, im, 3.5 h, read-out: PD50 /treatment
Source text: as §1, §2, §6

[12] = tested on: Providencia stuartii; assay: as above; format: in vivo; conditions: im, 3.5 h, read-out: PD50 /treatment
Source text: as §1, §2, §6

[13] = tested on: Proteus rettgeri; assay: as above; format: in vivo; conditions: Providencia rettgeri, im, Proteus rettgeri strain 4, challenge 2×10^6 -3×10^6, treated 1 and 3.5 hours after infection, read-out: PD50 /treatment
Source text: as §1, §2, §6

[14] = tested on: Proteus mirabilis; assay: as above; format: in vivo; conditions: im, 3.5 h, read-out: PD50 /treatment
Source text: as §1, §2, §6

[15] = tested on: Klebsiella pneumoniae; assay: as above; format: in vivo; conditions: im, 3.5 h, read-out: PD50 /treatment
Source text: as §1, §2, §6

[16] = tested on: Escherichia coli; assay: as above; format: in vivo; conditions: im, 3.5 h, read-out: PD50 /treatment
Source text: as §1, §2, §6

[17] = target: staphylococcal β-lactamase, Staphylococcus aureus A9606 (Staphylococcus aureus, UniProt P00807); assay: Hydrolysis by β-lactamase in cell-free extracts; format: biochemical; conditions: cell-free extract
Procedure: Miscellaneous. Methods for determining bactericidal activity and susceptibility to cell-free β-lactamase were those previously used; Leitner et al., BL-S640, A Cephalosporin With a Broad Spectrum of Antibacterial Activity: Properties in vitro, Antimicrob. Agents Chemother. 7:298-305 (1975).
Susceptibility to β-lactamase. Susceptibility to enzymic hydrolysis was assessed by determining relative rates of hydrolysis by cell-free preparations of various β-lactamases (Table 6). BL-S786 was slightly to markedly less susceptible than the other cephalosporins to hydrolysis by β-lactamases of Type Ia, Ib, IIIa and IVa. All cephalosporins were poor substrates for Type IIa and staphylococcal β-lactamases. The four cephalosporins were hydrolyzed at similar rates by the Type IVb enzyme.

[18] = tested on: Enterobacter cloacae; assay: Effect of inoculum size on susceptibility of Enterobacteriaceae
[19] = tested on: Proteus mirabilis; assay: as above

Sequence of staphylococcal β-lactamase, Staphylococcus aureus A9606 (P00807 25-281): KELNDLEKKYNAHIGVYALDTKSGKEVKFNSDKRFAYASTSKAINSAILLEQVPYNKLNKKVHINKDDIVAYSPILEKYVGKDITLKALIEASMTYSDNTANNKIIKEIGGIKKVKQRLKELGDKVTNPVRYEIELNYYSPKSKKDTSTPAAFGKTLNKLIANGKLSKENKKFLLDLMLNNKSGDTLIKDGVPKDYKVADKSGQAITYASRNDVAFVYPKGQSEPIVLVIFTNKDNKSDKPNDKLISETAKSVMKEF

SMILES: NCc1ccccc1CC(=O)N[C@@H]1C(=O)N2C(C(=O)O)=C(CSc3nnnn3CC(=O)O)CS[C@H]12 [Example 1]
- percent of strains inhibited [1]: Ninety-eight
- relative activity against Haemophilus influenzae [2]: about equally active
- MIC [3]: > 125 µg/mL
- fraction unbound [4]: 0.33
- ED50 ([5]; Streptococcus pneumoniae strain 1, challenge 2 × 10^3 - 9 × 10^3, treated 1 and 3.5 hours after infection): 0.52 mg/kg
- ED50 ([5]; Streptococcus pneumoniae strain 2, challenge 1 × 10^4 - 3 × 10^4, treated 1 and 3.5 hours after infection): 1.6 mg/kg
- ED50 ([6]; 3.5 h, Staphylococcus aureus strain 1, challenge 2 × 10^5 - 3 × 10^5, treated 1 and 3.5 hours after infection): 0.3 mg/kg
- ED50 ([6]; Staphylococcus aureus strain 2 (penicillinase-producing), challenge 1 × 10^9, treated 0 and 2 hours after infection): 5.4 mg/kg
- ED50 ([6]; Staphylococcus aureus strain 3 (penicillinase-producing), challenge 5 × 10^8 - 7 × 10^9, treated 0 and 2 hours after infection): 10 mg/kg
- ED50 ([7]; Streptococcus pyogenes strain 1, challenge 2 × 10^3 -6 × 10^3, treated 1 and 3.5 hours after infection): 2.9 mg/kg
- ED50 ([7]; Streptococcus pyogenes strain 2, challenge 1 × 10^4 - 5 × 10^4, treated 1 and 3.5 hours after infection): 0.93 mg/kg
- MIC [8]: 0.13 µg/mL (≈ 0.25 µM)
- ED50 [9]: 3.5 mg/kg
- ED50 ([10]; Proteus vulgaris strain 1, challenge 1×10^6 -2×10^6, treated 1 and 3.5 hours after infection): 1.8 mg/kg
- ED50 ([10]; Proteus vulgaris strain 3, challenge 4×10^5, treated 1 and 3.5 hours after infection): 2.5 mg/kg
- ED50 ([11]; Proteus morganii strain 1, challenge 1×10^5 -4×10^5, treated 1 and 3.5 hours after infection): 19 mg/kg
- ED50 ([11]; Proteus morganii strain 2, challenge 2×10^6 -3×10^6, treated 1 and 3.5 hours after infection): 39 mg/kg
- ED50 ([12]; Providencia stuartii strain 2, challenge 1×10^6 ×5×10^6, treated 1 and 3.5 hours after infection): 5.9 mg/kg
- ED50 ([12]; Providencia stuartii strain 3, challenge 2×10^7, treated 1 and 3.5 hours after infection): 8 mg/kg
- ED50 [13]: 2.4 mg/kg
- ED50 ([14]; Proteus mirabilis strain 1, challenge 7×10^6 -9×10^6, treated 1 and 3.5 hours after infection): 1.4 mg/kg
- ED50 ([14]; Proteus mirabilis strain 5, challenge 9×10^5 -3×10^6, treated 1 and 3.5 hours after infection): 0.62 mg/kg
- ED50 ([14]; Proteus mirabilis strain 8, challenge 6×10^5 -4×10^6, treated 1 and 3.5 hours after infection): 0.59 mg/kg
- ED50 ([15]; Klebsiella pneumoniae strain 1, challenge 4×10^4 -5×10^4, treated 1 and 3.5 hours after infection): 2 mg/kg
- ED50 ([15]; Klebsiella pneumoniae strain 7, challenge 9×10^2 -1×10^3, treated 1 and 3.5 hours after infection): 22 mg/kg
- ED50 ([16]; Escherichia coli strain 1, challenge 2×10^5 organisms, treated 1 and 3.5 hours after infection): 0.37 mg/kg
- ED50 ([16]; Escherichia coli strain 8, challenge 6×10^5 -4×10^6, treated 1 and 3.5 hours after infection): 1.5 mg/kg
- ED50 ([16]; Escherichia coli strain 9, challenge 7×10^3 -2×10^4, treated 1 and 3.5 hours after infection): 2.2 mg/kg
- Relative Rate of Hydrolysis (benzylpenicillin = 100) [17]: < 0.5
- MIC ([18]; read-out: Minimum Inhibitory Concentration, Enterobacter cloacae strain 1, A, Inoculum of 10^2 organisms): 1 µg/mL (≈ 1.92 µM)
- MIC ([18]; read-out: Minimum Inhibitory Concentration, Enterobacter cloacae strain 1, B, Inoculum of 10^6 organisms): > 250 µg/mL
- MIC ([18]; read-out: Minimum Inhibitory Concentration, Enterobacter cloacae strain 2, A, Inoculum of 10^2 organisms): 1 µg/mL (≈ 1.92 µM)
- MIC ([18]; read-out: Minimum Inhibitory Concentration, Enterobacter cloacae strain 2, B, Inoculum of 10^6 organisms): > 250 µg/mL
- MIC ([18]; read-out: Minimum Inhibitory Concentration, Enterobacter cloacae strain 3, A, Inoculum of 10^2 organisms): 2 µg/mL (≈ 3.85 µM)
- MIC ([18]; read-out: Minimum Inhibitory Concentration, Enterobacter cloacae strain 3, B, Inoculum of 10^6 organisms): > 250 µg/mL
- MIC ([18]; read-out: Minimum Inhibitory Concentration, Enterobacter cloacae strain 4, A, Inoculum of 10^2 organisms): 2 µg/mL (≈ 3.85 µM)
- MIC ([18]; read-out: Minimum Inhibitory Concentration, Enterobacter cloacae strain 4, B, Inoculum of 10^6 organisms): > 250 µg/mL
- MIC ([18]; read-out: Minimum Inhibitory Concentration, Enterobacter cloacae strain 5, A, Inoculum of 10^2 organisms): 8 µg/mL (≈ 15.4 µM)
- MIC ([18]; read-out: Minimum Inhibitory Concentration, Enterobacter cloacae strain 5, B, Inoculum of 10^6 organisms): 250 µg/mL (≈ 481 µM)
- MIC ([19]; read-out: Minimum Inhibitory Concentration, Proteus mirabilis strain 1, A, Inoculum of 10^2 organisms): 0.5 µg/mL (≈ 0.962 µM)
- MIC ([19]; read-out: Minimum Inhibitory Concentration, Proteus mirabilis strain 1, B, Inoculum of 10^6 organisms): 2 µg/mL (≈ 3.85 µM)
- MIC ([19]; read-out: Minimum Inhibitory Concentration, Proteus mirabilis strain 2, A, Inoculum of 10^2 organisms): 0.5 µg/mL (≈ 0.962 µM)
- MIC ([19]; read-out: Minimum Inhibitory Concentration, Proteus mirabilis strain 2, B, Inoculum of 10^6 organisms): 4 µg/mL (≈ 7.7 µM)
- MIC ([19]; read-out: Minimum Inhibitory Concentration, Proteus mirabilis strain 3, A, Inoculum of 10^2 organisms): 0.5 µg/mL (≈ 0.962 µM)
- MIC ([19]; read-out: Minimum Inhibitory Concentration, Proteus mirabilis strain 3, B, Inoculum of 10^6 organisms): 2 µg/mL (≈ 3.85 µM)
- MIC ([19]; read-out: Minimum Inhibitory Concentration, Proteus mirabilis strain 4, A, Inoculum of 10^2 organisms): 0.5 µg/mL (≈ 0.962 µM)
- MIC ([19]; read-out: Minimum Inhibitory Concentration, Proteus mirabilis strain 4, B, Inoculum of 10^6 organisms): 2 µg/mL (≈ 3.85 µM)
- MIC ([19]; read-out: Minimum Inhibitory Concentration, Proteus mirabilis strain 5, A, Inoculum of 10^2 organisms): 0.5 µg/mL (≈ 0.962 µM)
- MIC ([19]; read-out: Minimum Inhibitory Concentration, Proteus mirabilis strain 5, B, Inoculum of 10^6 organisms): 4 µg/mL (≈ 7.7 µM)
